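The concentration for 50% growth inhibition is given as GI50. TGI denotes the concentration required for complete inhibition of growth.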
Key:
Assay in all cases: DTP human tumour cell line panel, 384-well format
HOP-62 NSCLC = tested on: HOP-62 NSCLC
UACC-257 melanoma = tested on: UACC-257 melanoma
RPMI-8226 leukemia = tested on: RPMI-8226 leukemia
MDA-MB-231 breast = tested on: MDA-MB-231 breast
HOP-92 NSCLC = tested on: HOP-92 NSCLC
CAKI-1 renal = tested on: CAKI-1 renal
HCT-15 colon = tested on: HCT-15 colon
HCC-2998 colon = tested on: HCC-2998 colon
OVCAR-3 ovarian = tested on: OVCAR-3 ovarian
SF-295 CNS = tested on: SF-295 CNS
NCI-H522 lung = tested on: NCI-H522 lung
DU-145 prostate = tested on: DU-145 prostate
NCI/ADR-RES ovarian = tested on: NCI/ADR-RES ovarian
MOLT-4 leukemia = tested on: MOLT-4 leukemia
NCI-H23 lung = tested on: NCI-H23 lung
786-0 renal = tested on: 786-0 renal
SF-268 CNS = tested on: SF-268 CNS
OVCAR-5 ovarian = tested on: OVCAR-5 ovarian
HS 578T breast = tested on: HS 578T breast
SK-MEL-5 melanoma = tested on: SK-MEL-5 melanoma
UO-31 renal = tested on: UO-31 renal
A498 renal = tested on: A498 renal
T-47D breast = tested on: T-47D breast
CCRF-CEM leukemia = tested on: CCRF-CEM leukemia
NCI-H322M lung = tested on: NCI-H322M lung
MCF7 breast = tested on: MCF7 breast
HT29 colon = tested on: HT29 colon
SF-539 CNS = tested on: SF-539 CNS
KM12 colon = tested on: KM12 colon
SR leukemia = tested on: SR leukemia
SK-OV-3 ovarian = tested on: SK-OV-3 ovarian
MALME-3M melanoma = tested on: MALME-3M melanoma
TK-10 renal = tested on: TK-10 renal
OVCAR-4 ovarian = tested on: OVCAR-4 ovarian
EKVX NSCLC = tested on: EKVX NSCLC
RXF 393 renal = tested on: RXF 393 renal
SNB-75 CNS = tested on: SNB-75 CNS
COLO 205 colon = tested on: COLO 205 colon
SNB-19 CNS = tested on: SNB-19 CNS
UACC-62 melanoma = tested on: UACC-62 melanoma
LOX IMVI melanoma = tested on: LOX IMVI melanoma
SK-MEL-2 melanoma = tested on: SK-MEL-2 melanoma
M14 melanoma = tested on: M14 melanoma
K-562 leukemia = tested on: K-562 leukemia
MDA-MB-468 breast = tested on: MDA-MB-468 breast
IGROV1 ovarian = tested on: IGROV1 ovarian
BT-549 breast = tested on: BT-549 breast

`CC#CC(=O)N1CC[C@@H](n2c(=O)n(-c3ccc(Oc4ccccc4)cc3)c3c(N)ncnc32)C1` was tested, and the GI50 (HOP-62 NSCLC) was 21.3 µM, the TGI (HOP-62 NSCLC) was 61.8 µM and the GI50 (UACC-257 melanoma) was 19.7 µM. For the same compound, the TGI (UACC-257 melanoma) was 67.2 µM, the GI50 (RPMI-8226 leukemia) was 7.89 µM and the TGI (RPMI-8226 leukemia) was 23 µM. For the same compound, the GI50 (MDA-MB-231 breast) was 22 µM, the TGI (MDA-MB-231 breast) was greater than 67.8 µM and the GI50 (HOP-92 NSCLC) was 13.4 µM. The TGI (HOP-92 NSCLC) was greater than 59.6 µM, the GI50 (CAKI-1 renal) was 23.5 µM and the TGI (CAKI-1 renal) was greater than 100 µM. It also gave a GI50 (HCT-15 colon) of 28.6 µM, a TGI (HCT-15 colon) greater than 89.5 µM and a GI50 (HCC-2998 colon) of 24.5 µM. The TGI (HCC-2998 colon) was 49.4 µM, the GI50 (OVCAR-3 ovarian) was 14.3 µM and the TGI (OVCAR-3 ovarian) was 31.3 µM. It also gave a GI50 (SF-295 CNS) of 40.5 µM, a TGI (SF-295 CNS) greater than 100 µM and a GI50 (NCI-H522 lung) of 5.88 µM. It also gave a TGI (NCI-H522 lung) of 27.9 µM, a GI50 (DU-145 prostate) of 25.5 µM and a TGI (DU-145 prostate) greater than 70.2 µM. It also gave a GI50 (NCI/ADR-RES ovarian) of 15.7 µM, a TGI (NCI/ADR-RES ovarian) of 41.3 µM and a GI50 (MOLT-4 leukemia) of 3.13 µM. The TGI (MOLT-4 leukemia) was 12.7 µM, the GI50 (NCI-H23 lung) was 30.9 µM and the TGI (NCI-H23 lung) was 99.6 µM. For the same compound, the GI50 ([…]-0 renal) was 23 µM, the TGI (786-0 renal) was 66.1 µM and the GI50 (SF-268 CNS) was 25.1 µM. It also gave a TGI (SF-268 CNS) greater than 65 µM, a GI50 (OVCAR-5 ovarian) greater than 64.3 µM and a TGI (OVCAR-5 ovarian) greater than 100 µM. It also gave a GI50 (HS 578T breast) of 22.1 µM, a TGI (HS 578T breast) of 55.9 µM and a GI50 (SK-MEL-5 melanoma) of 17.7 µM. It also gave a TGI (SK-MEL-5 melanoma) of 47 µM, a GI50 (UO-31 renal) of 31.8 µM and a TGI (UO-31 renal) greater than 100 µM. The GI50 (A498 renal) was 21.7 µM, the TGI (A498 renal) was greater than 74.2 µM and the GI50 (T-47D breast) was 11.9 µM. The TGI (T-47D breast) was 33.1 µM, the GI50 (CCRF-CEM leukemia) was 11.4 µM and the TGI (CCRF-CEM leukemia) was 23.7 µM. The GI50 (NCI-H322M lung) was 27.5 µM, the TGI (NCI-H322M lung) was greater than 100 µM and the TGI (MCF7 breast) was 80.6 µM. The GI50 (HT29 colon) was 32.2 µM, the TGI (HT29 colon) was greater than 100 µM and the GI50 (SF-539 CNS) was 21.6 µM. It also gave a TGI (SF-539 CNS) of 53.6 µM, a GI50 (KM12 colon) of 27.4 µM and a TGI (KM12 colon) greater than 76.8 µM. It also gave a GI50 (SR leukemia) of 5.69 µM, a TGI (SR leukemia) of 18.6 µM and a GI50 (SK-OV-3 ovarian) of 33.5 µM. It also gave a TGI (SK-OV-3 ovarian) greater than 87.1 µM, a GI50 (MALME-3M melanoma) of 37.2 µM and a TGI (MALME-3M melanoma) greater than 100 µM. For the same compound, the GI50 (TK-10 renal) was 36.5 µM, the TGI (TK-10 renal) was greater than 100 µM and the GI50 (OVCAR-4 ovarian) was 29.5 µM. For the same compound, the TGI (OVCAR-4 ovarian) was greater than 100 µM, the GI50 (EKVX NSCLC) was 20.7 µM and the TGI (EKVX NSCLC) was greater than 77.2 µM. The GI50 (RXF 393 renal) was 13.4 µM, the TGI (RXF 393 renal) was 32.2 µM and the GI50 (SNB-75 CNS) was 28.6 µM. It also gave a TGI (SNB-75 CNS) of 77.2 µM, a GI50 (COLO 205 colon) of 37.1 µM and a TGI (COLO 205 colon) greater than 100 µM. For the same compound, the GI50 (SNB-19 CNS) was 23.3 µM, the TGI (SNB-19 CNS) was greater than 64.3 µM and the GI50 (UACC-62 melanoma) was 22.8 µM. The TGI (UACC-62 melanoma) was greater than 100 µM, the GI50 (LOX IMVI melanoma) was 18.8 µM and the TGI (LOX IMVI melanoma) was 36.2 µM. The GI50 (SK-MEL-2 melanoma) was 18.1 µM, the TGI (SK-MEL-2 melanoma) was 34.7 µM and the GI50 (M14 melanoma) was 22.7 µM. For the same compound, the TGI (M14 melanoma) was 50.1 µM, the GI50 (K-562 leukemia) was 12.5 µM and the TGI (K-562 leukemia) was 38.4 µM. The GI50 (MDA-MB-468 breast) was 10.1 µM, the TGI (MDA-MB-468 breast) was 24.5 µM and the GI50 (IGROV1 ovarian) was 16.8 µM. The TGI (IGROV1 ovarian) was 37.4 µM, the GI50 (BT-549 breast) was 16.6 µM and the TGI (BT-549 breast) was 33.9 µM.

Source: PubChem BioAssay (NCI)
